{"source": "patent US20130338106A1", "about": "“COMPOUNDS INHIBITING LEUCINE-RICH REPEAT KINASE ENZYME ACTIVITY” (priority 2011, published 2013)", "note": "pIC50: −log10 of the molar value.", "data": [{"molecular_target": "T1, LRRK2 G2019S mutant kinase (Homo sapiens, UniProt Q5S007, G2019S)", "T1 construct": "GST; purchased Invitrogen PV4882", "T1 sequence (Q5S007 whole entry G2019S)": "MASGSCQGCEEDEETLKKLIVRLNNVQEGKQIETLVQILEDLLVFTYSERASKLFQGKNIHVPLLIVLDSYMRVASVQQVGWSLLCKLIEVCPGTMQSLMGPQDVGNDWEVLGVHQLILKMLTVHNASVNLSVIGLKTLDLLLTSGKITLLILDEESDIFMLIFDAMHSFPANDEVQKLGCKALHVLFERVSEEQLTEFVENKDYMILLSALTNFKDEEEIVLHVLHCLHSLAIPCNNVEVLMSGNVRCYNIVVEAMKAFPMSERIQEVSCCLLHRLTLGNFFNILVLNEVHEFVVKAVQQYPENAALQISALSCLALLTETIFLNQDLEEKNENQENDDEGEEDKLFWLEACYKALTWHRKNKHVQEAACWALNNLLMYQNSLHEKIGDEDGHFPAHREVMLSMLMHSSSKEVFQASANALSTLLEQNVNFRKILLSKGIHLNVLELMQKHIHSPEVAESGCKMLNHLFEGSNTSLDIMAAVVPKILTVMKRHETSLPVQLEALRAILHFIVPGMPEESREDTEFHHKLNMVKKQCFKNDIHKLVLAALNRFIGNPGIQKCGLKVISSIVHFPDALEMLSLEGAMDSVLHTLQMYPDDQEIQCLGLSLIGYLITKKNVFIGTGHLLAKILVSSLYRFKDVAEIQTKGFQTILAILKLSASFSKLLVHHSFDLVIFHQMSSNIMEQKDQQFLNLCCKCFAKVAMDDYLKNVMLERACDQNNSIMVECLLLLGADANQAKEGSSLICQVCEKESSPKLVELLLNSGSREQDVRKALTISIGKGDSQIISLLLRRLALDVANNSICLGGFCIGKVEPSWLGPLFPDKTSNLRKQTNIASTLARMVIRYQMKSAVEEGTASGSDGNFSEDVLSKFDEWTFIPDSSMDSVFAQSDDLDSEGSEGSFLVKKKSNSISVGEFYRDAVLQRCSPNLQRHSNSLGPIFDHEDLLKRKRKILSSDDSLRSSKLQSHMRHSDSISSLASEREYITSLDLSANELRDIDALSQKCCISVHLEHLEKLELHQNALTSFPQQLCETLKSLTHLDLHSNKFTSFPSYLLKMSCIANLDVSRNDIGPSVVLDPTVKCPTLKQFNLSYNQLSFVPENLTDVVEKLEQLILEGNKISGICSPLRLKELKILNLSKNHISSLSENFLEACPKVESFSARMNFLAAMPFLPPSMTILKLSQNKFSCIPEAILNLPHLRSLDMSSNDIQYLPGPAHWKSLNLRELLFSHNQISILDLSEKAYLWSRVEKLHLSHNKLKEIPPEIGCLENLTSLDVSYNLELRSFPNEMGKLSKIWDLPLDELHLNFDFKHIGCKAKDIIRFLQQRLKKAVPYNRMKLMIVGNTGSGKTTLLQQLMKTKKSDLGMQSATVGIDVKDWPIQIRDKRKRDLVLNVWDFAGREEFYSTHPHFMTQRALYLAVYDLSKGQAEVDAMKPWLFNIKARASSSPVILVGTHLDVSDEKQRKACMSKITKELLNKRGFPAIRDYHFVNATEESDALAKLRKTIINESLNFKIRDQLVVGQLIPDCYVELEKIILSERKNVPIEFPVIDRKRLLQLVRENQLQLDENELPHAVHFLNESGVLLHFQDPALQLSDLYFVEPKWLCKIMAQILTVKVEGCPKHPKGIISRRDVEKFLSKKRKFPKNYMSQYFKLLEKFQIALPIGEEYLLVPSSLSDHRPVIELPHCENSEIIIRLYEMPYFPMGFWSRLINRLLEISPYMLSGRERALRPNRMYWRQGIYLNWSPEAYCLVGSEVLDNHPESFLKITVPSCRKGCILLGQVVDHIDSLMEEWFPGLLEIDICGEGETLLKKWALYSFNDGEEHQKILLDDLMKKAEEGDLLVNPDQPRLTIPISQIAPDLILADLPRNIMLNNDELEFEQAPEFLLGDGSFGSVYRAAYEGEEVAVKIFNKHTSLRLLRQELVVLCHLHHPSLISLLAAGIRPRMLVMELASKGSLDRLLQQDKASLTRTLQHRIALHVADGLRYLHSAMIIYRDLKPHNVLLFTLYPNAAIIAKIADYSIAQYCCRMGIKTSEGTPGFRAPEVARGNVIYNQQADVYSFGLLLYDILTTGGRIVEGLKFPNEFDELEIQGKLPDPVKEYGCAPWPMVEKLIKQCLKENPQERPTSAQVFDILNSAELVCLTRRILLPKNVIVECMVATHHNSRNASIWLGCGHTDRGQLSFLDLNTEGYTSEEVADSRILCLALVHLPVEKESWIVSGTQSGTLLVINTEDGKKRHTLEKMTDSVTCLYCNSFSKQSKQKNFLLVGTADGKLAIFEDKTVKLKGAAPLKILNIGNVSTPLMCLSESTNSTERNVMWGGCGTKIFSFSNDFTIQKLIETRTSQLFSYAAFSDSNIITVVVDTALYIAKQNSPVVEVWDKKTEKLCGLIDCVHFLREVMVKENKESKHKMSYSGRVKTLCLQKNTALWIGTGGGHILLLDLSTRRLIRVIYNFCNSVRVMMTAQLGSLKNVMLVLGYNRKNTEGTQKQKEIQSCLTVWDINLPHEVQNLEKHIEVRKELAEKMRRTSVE", "test": "LRRK2 G2019S LanthaScreen TR-FRET kinase assay", "format": "biochemical", "conditions": "LRRK2 G2019S GST-tagged protein, 100 μM ATP, LRRKtide substrate; read-out: IC50 (potency)", "experimental": "Activity of compounds against LRRK2 G2019S mutant kinase function was tested in a LANTHAScreen® assay as follows: Compounds were diluted in 100% DMSO to the desired test concentrations in white, low-volume 384-well plates (PerkinElmer ProxiPlate® PN: 6008280). TR-FRET kinase reactions (10 μL) were performed with 75 nM Fluorescein-ERM (LRRKtide, Invitrogen, PN:PV4901) substrate in a final assay buffer containing 100 μM ATP and 2 mM DTT diluted in commercially available Kinase Buffer S (Invitrogen PN: PV5213). The final solvent concentration in the assay was 1% DMSO. Reactions were initiated with the addition of 10 ng/well of LRRK2 02019S, GST-tagged protein (Invitrogen PN: PV4882). After incubation of the foil sealed reaction plates at room temperature with low speed mixing for 1 hour, the kinase reaction was stopped and the amount of substrate phosphorylation was detected by addition of 10 μL of 10 mM EDTA and 2 nM Tb-anti-pERM (pLRRKtide antibody, Invitrogen, PN: PV4898) antibody in TR-FRET dilution buffer (Invitrogen PN: PV3574). After a 30 minute incubation at room temperature with low speed mixing, foil seals were removed and measurements were obtained on a PerkinElmer EnVision with excitation 340 nm, emission 520 nm (channel 1): 495 nm (channel 2) settings. Generation of raw data and workup of data to derive the IC50 (potency) and maximal inhibition at concentrations tested were performed using Merck's Assay Data Analyzer (ADA) software.", "values": [{"smiles": "CS(=O)(=O)c1sc(-c2cc[nH]n2)c2c1C(=O)CCC2", "note": "[Example 2, 3-(Methylsulfonyl)-1-(1H-pyrazol-3-yl)-6,7-dihydro-2-benzothiophen-4(5H)-one]", "pIC50": 5.46}, {"smiles": "O=C1CCCc2c(-c3cc[nH]n3)sc(SC3CCCC3)c21", "note": "[Example 3, 3-(Cyclopentylsulfanyl)-1-(1H-pyrazol-3-yl)-6,7-dihydro-2-benzothiophen-4(5H)-one]", "pIC50": 6.37}, {"smiles": "O=C1CCCc2c(-c3cc[nH]n3)sc(NC3CCCC3)c21", "note": "[Example 4, 3-(Cyclopentylamino)-1-(1H-pyrazol-3-yl)-6,7-dihydro-2-benzothiophen-4(5H)-one]", "pIC50": 6.80}, {"smiles": "CSc1sc(-c2cc[nH]n2)c2c1C(=O)CC(C)(C)C2", "note": "[Example 5, 6,6-Dimethyl-3-(methylsulfanyl)-1-(1H-pyrazol-3-yl)-6,7-dihydro-2-benzothiophen-4(5H)-one]", "pIC50": 6.64}, {"smiles": "CC1(C)CC(=O)c2c(S(C)(=O)=O)sc(-c3cc[nH]n3)c2C1", "note": "[Example 6, 6,6-Dimethyl-3-(methylsulfonyl)-1-(1H-pyrazol-3-yl)-6,7-dihydro-2-benzothiophen-4(5H)-one]", "pIC50": 5.55}, {"smiles": "CCSc1sc(-c2cc[nH]n2)c2c1C(=O)CC(C)(C)C2", "note": "[Example 8, 3-(Ethylsulfanyl)-6,6-dimethyl-1-(1H-pyrazol-3-yl)-6,7-dihydro-2-benzothiophen-4(5H)-one]", "pIC50": 6.74}, {"smiles": "CC(C)Sc1sc(-c2cc[nH]n2)c2c1C(=O)CC(C)(C)C2", "note": "[Example 9, 6,6-Dimethyl-3-(propan-2-ylsulfanyl)-1-(1H-pyrazol-3-yl)-6,7-dihydro-2-benzothiophen-4(5H)-one]", "pIC50": 6.85}, {"smiles": "CC1(C)CC(=O)c2c(SCCO)sc(-c3cc[nH]n3)c2C1", "note": "[Example 10, 3-[(2-Hydroxyethyl)sulfanyl]-6,6-dimethyl-1-(1H-pyrazol-3-yl)-6,7-dihydro-2-benzothiophen-4(5H)-one]", "pIC50": 6.62}, {"smiles": "CC1(C)CC(=O)c2c(SCCCO)sc(-c3cc[nH]n3)c2C1", "note": "[Example 11, 3-[(3-Hydroxypropyl)sulfanyl]-6,6-dimethyl-1-(1H-pyrazol-3-yl)-6,7-dihydro-2-benzothiophen-4(5H)-one]", "pIC50": 6.70}, {"smiles": "COCCSc1sc(-c2cc[nH]n2)c2c1C(=O)CC(C)(C)C2", "note": "[Example 12, 3-[(2-Methoxyethyl)sulfanyl]-6,6-dimethyl-1-(1H-pyrrazol-3-yl)-6,7-dihydro-2-henzothiophen-4(5H)-one]", "pIC50": 6.54}, {"smiles": "CN(C)CCSc1sc(-c2cc[nH]n2)c2c1C(=O)CC(C)(C)C2", "note": "[Example 13, 3-{[2-(Dimethylamino)ethyl]sulfanyl}-6,6-dimethyl-1-(1H-pyrazol-3-yl)-6,7-dihydro-2-benzothiophen-4(5H)-one]", "pIC50": 6.28}, {"smiles": "CC1(C)CC(=O)c2c(SCc3ccccc3)sc(-c3cc[nH]n3)c2C1", "note": "[Example 14, 3-(Benzylsulfanyl)-6,6-dimethyl-1-(1H-pyrazol-3-yl)-6,7-dihydro-2-benzothiophen-4(5H)-one]", "pIC50": 6.07}, {"smiles": "CC1(C)CC(=O)c2c(SCc3ccco3)sc(-c3cc[nH]n3)c2C1", "note": "[Example 15, 3-[(Furan-2-ylmethyl)sulfanyl]-6,6-dimethyl-1-(1H-pyrazol-3-yl)-6,7-dihydro-2-benzothiophen-4(5H)-one]", "pIC50": 6.35}, {"smiles": "CC(O)CSc1sc(-c2cc[nH]n2)c2c1C(=O)CC(C)(C)C2", "note": "(centres unmarked) [Example 16, 3-[(2-Hydroxypropyl)sulfanyl]-6,6-dimethyl-1-(1H-pyrazol-3-yl)-6,7-dihydro-2-benzothiophen-4(5H)-one]", "pIC50": 6.66}, {"smiles": "CC1(C)CC(=O)c2c(SCCc3ccccc3)sc(-c3cc[nH]n3)c2C1", "note": "[Example 17, 6,6-Dimethyl-3-[(2-phenylethyl)sulfanyl]-1-(1H-pyrazol-3-yl)-6,7-dihydro-2-benzothiophen-4(5H)-one]", "pIC50": 6.35}, {"smiles": "CCC(C)CSc1sc(-c2cc[nH]n2)c2c1C(=O)CC(C)(C)C2", "note": "(centres unmarked) [Example 18, 6,6-Dimethyl-3-[(2-methylbutyl)sulfanyl]-1-(1H-pyrazol-3-yl)-6,7-dihydro-2-benzothiophen-4(5H)-one]", "pIC50": 6.66}, {"smiles": "CC1(C)CC(=O)c2c(SCCCCCCO)sc(-c3cc[nH]n3)c2C1", "note": "[Example 19, 3-[(6-Hydroxyhexyl)sulfanyl]-6,6-dimethyl-1-(1H-pyrazol-3-yl)-6,7-dihydro-2-benzothiophen-4(5H)-one]", "pIC50": 7.22}, {"smiles": "CC1(C)CC(=O)c2c(SCCCCCCN=[N+]=[N-])sc(-c3cc[nH]n3)c2C1", "note": "[Example 20, 3-[(6-Azidohexyl)sulfanyl]-6,6-dimethyl-1-(1H-pyrazol-3-yl)-6,7-dihydro-2-benzothiophen-4(5H)-one]", "pIC50": 6.31}, {"smiles": "CC1(C)CC(=O)c2c(SCCCN=[N+]=[N-])sc(-c3cc[nH]n3)c2C1", "note": "[Example 21, 3-[(3-Azidopropyl)sulfanyl]-6,6-dimethyl-1-(1H-pyrazol-3-yl)-6,7-dihydro-2-benzothiophen-4(5H)-one]", "pIC50": 6.70}, {"smiles": "CC1(C)CC(=O)c2c(SCC3CC3)sc(-c3cc[nH]n3)c2C1", "note": "[Example 22, 3-[(Cyclopropylmethyl)sulfanyl]-6,6-dimethyl-1-(1H-pyrazol-3-yl)-6,7-dihydro-2-benzothiophen-4(5H)-one]", "pIC50": 6.89}, {"smiles": "CC(=O)NCCCCCCSc1sc(-c2cc[nH]n2)c2c1C(=O)CC(C)(C)C2", "note": "[Example 23, N-(6-{[5,5-Dimethyl-7-oxo-3-(1H-pyrazol-3-yl)-4,5,6,7-tetrahydro-2-benzothiophen-1-yl]sulfanyl}hexyl)acetamide]", "pIC50": 6.74}, {"smiles": "CC1(C)CC(=O)c2c(SCCCCCCN)sc(-c3cc[nH]n3)c2C1", "note": "[Example 24, 3-[(6-Aminohexyl)sulfanyl]-6,6-dimethyl-1-(1H-pyrazol-3-yl)-6,7-dihydro-2-benzothiophen-4(5H)-one]", "pIC50": 7.15}, {"smiles": "CC1(C)CC(=O)c2c(SCC(O)CO)sc(-c3cc[nH]n3)c2C1", "note": "(centres unmarked) [Example 25, 3-[(2,3-Dihydroxypropyl)sulfanyl]-6,6-dimethyl-1-(1H-pyrazol-3-yl)-6,7-dihydro-2-benzothiophen-4(5H)-one]", "pIC50": 6.13}, {"smiles": "CC(C)CSc1sc(-c2cc[nH]n2)c2c1C(=O)CC(C)(C)C2", "note": "[Example 26, 6,6-Dimethyl-3-[(2-methylpropyl)sulfanyl]-1-(1H-pyrazol-3-yl)-6,7-dihydro-2-benzothiophen-4(5H)-one]", "pIC50": 6.92}, {"smiles": "CCCCSc1sc(-c2cc[nH]n2)c2c1C(=O)CC(C)(C)C2", "note": "[Example 27, 3-(Butylsulfanyl)-6,6-dimethyl-1-(1H-pyrazol-3-yl)-6,7-dihydro-2-benzothiophen-4(5H)-one]", "pIC50": 6.85}, {"smiles": "CCCSc1sc(-c2cc[nH]n2)c2c1C(=O)CC(C)(C)C2", "note": "[Example 28, 6,6-Dimethyl-3-(propylsulfanyl)-1-(1H-pyrazol-3-yl)-6,7-dihydro-2-benzothiophen-4(5H)-one]", "pIC50": 6.80}, {"smiles": "CC1(C)CC(=O)c2c(SCC(F)(F)F)sc(-c3cc[nH]n3)c2C1", "note": "[Example 29, 6,6-Dimethyl-1-(1H-pyrazol-3-yl)-3-[(2,2,2-trifluoroethyl)sulfanyl]-6,7-dihydro-2-benzothiophen-4(5H)-one]", "pIC50": 6.60}, {"smiles": "CCC(C)Sc1sc(-c2cc[nH]n2)c2c1C(=O)CC(C)(C)C2", "note": "(centres unmarked) [Example 30, 3-(Butan-2-ylsulfanyl)-6,6-dimethyl-1-(1H-pyrazol-3-yl)-6,7-dihydro-2-benzothiophen-4(5H)-one]", "pIC50": 6.74}, {"smiles": "CC1(C)CC(=O)c2c(SCC[Si](C)(C)C)sc(-c3cc[nH]n3)c2C1", "note": "[Example 31, 6,6-Dimethyl-1-(1H-pyrazol-3-yl)-3-{[2-(trimethylsilyl)ethyl]sulfanyl}-6,7-dihydro-2-benzothiophen-4(5H)-one]", "pIC50": 5.72}, {"smiles": "Cc1nnc(Sc2sc(-c3cc[nH]n3)c3c2C(=O)CC(C)(C)C3)s1", "note": "[Example 32, 6,6-Dimethyl-3-[(5-methyl-1,3,4-thiadiazol-2-yl)sulfanyl]-1-(1H-pyrazol-3-yl)-6,7-dihydro-2-benzothiophen-4(5H)-one]", "pIC50": 5.40}, {"smiles": "CC1(C)CC(=O)c2c(SCCCCl)sc(-c3cc[nH]n3)c2C1", "note": "[Example 33, 3-[(3-Chloropropyl)sulfanyl]-6,6-dimethyl-1-(1H-pyrazol-3-yl)-6,7-dihydro-2-benzothiophen-4(5H)-one]", "pIC50": 6.92}, {"smiles": "CCCCCCSc1sc(-c2cc[nH]n2)c2c1C(=O)CC(C)(C)C2", "note": "[Example 34, 3-(Hexylsulfanyl)-6,6-dimethyl-1-(1H-pyrazol-3-yl)-6,7-dihydro-2-benzothiophen-4(5H)-one]", "pIC50": 5.89}, {"smiles": "CCCNc1sc(-c2cc[nH]n2)c2c1C(=O)CC(C)(C)C2", "note": "[Example 35, 6,6-Dimethyl-3-(propylamino)-1-(1H-pyrazol-3-yl)-6,7-dihydro-2-benzothiophen-4(5H)-one]", "pIC50": 6.82}, {"smiles": "CNc1sc(-c2cc[nH]n2)c2c1C(=O)CC(C)(C)C2", "note": "[Example 36, 6,6-Dimethyl-3-(methylamino)-1-(1H-pyrazol-3-yl)-6,7-dihydro-2-benzothiophen-4(5H)-one]", "pIC50": 6.12}, {"smiles": "CC(C)Nc1sc(-c2cc[nH]n2)c2c1C(=O)CC(C)(C)C2", "note": "[Example 37, 6,6-Dimethyl-3-(propan-2-ylamino)-1-(1H-pyrazol-3-yl)-6,7-dihydro-2-benzothiophen-4(5H)-one]", "pIC50": 6.74}]}]}
